Where two headings read alike, the source gives them in different places.
What was measured:
glucocorticoid receptor = target: T1, glucocorticoid receptor (Homo sapiens, UniProt P04150); test: Glucocorticoid Receptor Binding Assay (fluorescence polarisation, displacement of Alexa 555 labelled dexamethasone derivative); conditions: at least once in this assay; read-out: glucocorticoid binding pIC50 (converted)
T1 construct: a partially purified full length glucocorticoid receptor
T1 sequence (P04150 1-777): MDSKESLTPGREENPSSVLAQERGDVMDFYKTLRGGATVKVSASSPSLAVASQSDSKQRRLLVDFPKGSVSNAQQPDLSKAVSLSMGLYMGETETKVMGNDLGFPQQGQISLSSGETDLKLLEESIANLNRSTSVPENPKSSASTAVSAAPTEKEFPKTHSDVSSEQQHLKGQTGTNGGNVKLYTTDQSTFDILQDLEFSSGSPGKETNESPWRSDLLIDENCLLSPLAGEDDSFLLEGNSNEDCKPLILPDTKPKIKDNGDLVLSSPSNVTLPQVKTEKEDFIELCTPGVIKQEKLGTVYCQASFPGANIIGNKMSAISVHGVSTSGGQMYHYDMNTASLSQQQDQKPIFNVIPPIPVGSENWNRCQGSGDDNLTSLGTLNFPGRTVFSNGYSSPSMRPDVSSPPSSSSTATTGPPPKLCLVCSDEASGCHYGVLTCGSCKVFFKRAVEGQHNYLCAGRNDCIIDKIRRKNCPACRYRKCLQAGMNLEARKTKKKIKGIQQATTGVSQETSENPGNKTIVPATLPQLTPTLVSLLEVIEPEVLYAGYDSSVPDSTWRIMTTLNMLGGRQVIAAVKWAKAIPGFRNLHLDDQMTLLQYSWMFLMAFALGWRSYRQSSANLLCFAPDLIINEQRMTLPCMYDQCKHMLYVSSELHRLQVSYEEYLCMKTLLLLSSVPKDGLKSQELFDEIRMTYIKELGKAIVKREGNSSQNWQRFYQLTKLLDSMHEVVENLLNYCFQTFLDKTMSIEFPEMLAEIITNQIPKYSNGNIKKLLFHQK
Method: Compounds were solvated and diluted in DMSO, and transferred directly into assay plates. Fluorescent dexamethasone and a partially purified full length glucocorticoid receptor were added to the plates, together with buffer components to stabilise the GR protein and incubated at room temperature for 2 hr in the dark. Binding of each compound was assessed by analysing the displacement of fluorescent ligand by measuring the decrease in fluorescence polarisation signal from the mixture.

GR [1] = target: T2, GR (Homo sapiens, UniProt P04150); test: GR Agonist Assay - MMTV Assay (A549 MMTV cells, renilla luciferase reporter); format: cell-based; conditions: 6 h, agonists, read-out: average maximum asymptote in the MMTV agonist assay
T2 construct: endogenous in cells; host or cells: A549 (human lung carcinoma, ECACC No. 86012804), stably transfected with reporter plasmids only
T2 sequence (P04150 1-777): T1 sequence (P04150 1-777)
Method: (§1) Stimulation of the cell line with GR agonists results in intracellular signal transduction and ultimately translocation of GR into the nucleus. This activates the inserted DNA sequence resulting in transcription of the integrated luciferase gene, which is quantified using a light emission. The stably transfected cell line was grown as a monolayer in DMEM supplemented with FCS-HI (10%), Non-essential amino acids (1%), L-Glutamine (2 mM), Pen/Strep (1%) and Geneticin (50 mg/ml).
A 90% confluent T175 flask of A549 MMTV cells was harvested by centrifugation for 5 min at 200 g, resuspended in assay buffer (DMEM supplemented with 10% FCS 2×HI, 2 mM Glutamax, Non essential amino acids and 25 mM HEPES) and diluted to 0.1×10^6/ml. 70 μl of cell solution was dispensed to each well of white Nunc 384-well plates, containing compound at the required concentration. […] The plates were covered to protect the reagents from light, and then incubated at room temperature for approximately 15 mins before reading them on a Viewlux.

GR [2] = target: T2, GR; test: GR Functional Assay - NFκB Assay (A549 SPAP cells, TNFα stimulated); format: cell-based; conditions: for Emax: agonists, read-out: average maximum asymptote in the NFkB assay
Method: as §1, with “TNFα” for “GR agonists”, “NFκB” for “GR”, “SPAP” for “luciferase”, “calorimetric assay. […]” for “light emission.”
A 70% confluent T225 flask of A549 SPAP cells was harvested by centrifugation for 5 mins at 200 g, resuspended in assay buffer (DMEM supplemented with 10% FCS 2×HI, 2 mM L-Glutamine, 1% Pen/Strep and Non essential amino acids) and diluted to 0.16×10^6/ml. 60 μl of cell solution was dispensed to each well of clear Nunc 384-well plates, containing compound at the required concentration. […] Plates were equilibrated to room temperature for 1 hr prior to the addition of 25 μl of pNPP buffer (1M Diethanolamine pH 9.8, 0.5 mM MgCl2, 0.28M NaCl, 2 mg/ml pNPP) to each well of assay plates.

[3] = at least once, examples listed as agonists in NFkB and MMTV assays, read-out: potency pIC50 in the NFKB assay (converted)
[4] = at least once in the NFkB assay, A549 SPAP cells, read-out: pIC50 in the NFkB assay (converted)

SMILES	IC50 (glucocorticoid receptor)	Emax (GR [1])	Emax (GR [2]; A549 SPAP cells)	IC50 (GR [2]; [3])	IC50 (GR [2]; [4])
Nc1c(C(=O)NCC(O)(CN(CCF)C(=O)c2ccccc2C(F)(F)F)C(F)(F)F)cnn1-c1ccc(F)cc1 (racemic) [Example 10 (racemic), 5-amino-1-(4-fluorophenyl)-N-{3,3,3-trifluoro-2-[((2-fluoroethyl){[2-(trifluoromethyl)phenyl]carbonyl}amino)methyl]-2-hydroxypropyl}-1H-pyrazole-4-carboxamide]	< 1000 nM	≥ 40%	≥ 40%	< 316 nM	
Nc1c(C(=O)NCC(O)(CN(CCF)C(=O)c2ccccc2OC(F)F)C(F)(F)F)cnn1-c1ccc(F)cc1 (racemic) [Example 11 (racemic), 5-amino-N-(2-{[({2-[(difluoromethyl)oxy]phenyl}carbonyl) (2-fluoroethyl)amino]methyl}-3,3,3-trifluoro-2-hydroxypropyl)-1-(4-fluorophenyl)-1H-pyrazole-4-carboxamide]		≥ 40%	≥ 40%	< 316 nM	
CCN(CC(O)(CNC(=O)c1cnn(-c2ccc(F)cc2)c1N)C(F)(F)F)C(=O)c1ccccc1OC(F)F (racemic) [Example 12 (racemic), 5-amino-N-(2-{[({2-[(difluoromethyl)oxy]phenyl}carbonyl) (ethyl)amino]methyl}-3,3,3-trifluoro-2-hydroxypropyl)-1-(4-fluorophenyl)-1H-pyrazole-4-carboxamide]	< 1000 nM	≥ 40%	≥ 40%	< 316 nM	
CCN(CC(O)(CNC(=O)c1cnn(-c2ccc(F)cc2)c1N)C(F)(F)F)C(=O)c1cccc(Cl)c1 (racemic) [Example 17 (racemic), 5-amino-N-(2-{[[(3-chlorophenyl)car-bonyl](ethyl)amino]methyl}-3,3,3-trifluoro-2-hydroxypropyl)-1-(4-fluorophenyl)-1H-pyrazole-4-carboxamide]	< 1000 nM	≥ 40%	≥ 40%	< 316 nM	< 1000 nM
CCN(CC(O)(CNC(=O)c1cnn(-c2ccc(F)cc2)c1N)C(F)(F)F)C(=O)c1ccc(Cl)cc1 (racemic) [Example 19 (racemic), 5-amino-N-(2-{[[(4-chlorophenyl)car-bonyl](ethyl)amino]methyl}-3,3,3-trifluoro-2-hydroxypropyl)-1-(4-fluorophenyl)-1H-pyrazole-4-carboxamide]	< 1000 nM				
CCN(CC(O)(CNC(=O)c1cnn(-c2ccc(F)cc2)c1N)C(F)(F)F)C(=O)c1cccc(C(C)=O)c1 (racemic) [Example 22 (racemic), N-(2-{[[(3-acetylphenyl)car-bonyl](ethyl)amino]methyl}-3,3,3-trifluoro-2-hydroxypropyl)-5-amino-1-(4-fluorophenyl)-1H-pyrazole-4-carboxamide]	< 1000 nM				
CN(CC(O)(CNC(=O)c1cnn(-c2ccc(F)cc2)c1N)C(F)(F)F)C(=O)c1ccccc1 (racemic) [Example 25 (racemic), 5-amino-1-(4-fluorophenyl)-N-(3,3,3-trifluoro-2-hydroxy-2-{[methyl(phenylcarbonyl)amino]methyl}propyl)-1H-pyrazole-4-carboxamide]	< 1000 nM				< 1000 nM
CN(CC(O)(CNC(=O)c1cnn(-c2ccc(F)cc2)c1N)C(F)(F)F)C(=O)c1cccc2cccnc12 (racemic) [Example 42 (racemic), N-{2-[({[5-amino-1-(4-fluorophenyl)-1H-pyrazol-4-yl]carbonyl}amino)methyl]-3,3,3-trifluoro-2-hydroxypropyl}-N-methyl-8-quinolinecarboxamide]		≥ 40%	≥ 40%	< 316 nM	
Nc1c(C(=O)NCC(O)(CN(CCF)C(=O)c2ccccc2)C(F)(F)F)cnn1-c1ccc(F)cc1 (single isomer, unassigned) [Example 1 Enantiomer 2, 5-Amino-1-(4-fluorophenyl)-N-(3,3,3-trifluoro-2-{[(2-fluoroethyl)(phenylcarbonyl)amino]methyl}-2-hydroxypropyl)-1H-pyrazole-4-carboxamide]		≥ 40%	≥ 40%	< 316 nM	
CCN(CC(O)(CNC(=O)c1cnn(-c2ccc(F)cc2)c1N)C(F)(F)F)C(=O)c1ccccc1 (single isomer, unassigned) [Example 14 Enantiomer 2, 5-amino-N-(2-{[ethyl(phenylcar-bonyl)amino]methyl}-3,3,3-trifluoro-2-hydroxypropyl)-1-(4-fluorophenyl)-1H-pyrazole-4-carboxamide]		≥ 40%	≥ 40%	< 316 nM	< 1000 nM

Results, then the molecule that gave them:

IC50 (glucocorticoid receptor)	Emax (GR [1])	Emax (GR [2]; A549 SPAP cells)	IC50 (GR [2]; [3])	IC50 (GR [2]; [4])	SMILES
< 1000 nM	≥ 40%	≥ 40%	< 316 nM		CCN(CC(O)(CNC(=O)c1cnn(-c2ccc(F)cc2)c1N)C(F)(F)F)C(=O)c1ccccc1C(C)=O (racemic) [Example 13 (racemic), N-(2-{[[(2-acetylphenyl)car-bonyl](ethyl)amino]methyl}-3,3,3-trifluoro-2-hydroxypropyl)-5-amino-1-(4-fluorophenyl)-1H-pyrazole-4-carboxamide]
< 1000 nM				< 1000 nM	CCN(CC(O)(CNC(=O)c1cnn(-c2ccc(F)cc2)c1N)C(F)(F)F)C(=O)c1ccc(F)c(F)c1 (racemic) [Example 21 (racemic), 5-amino-N-(2-{[[(3,4-difiuorophenyl)car-bonyl](ethyl)amino]methyl}-3,3,3-trifluoro-2-hydroxypropyl)-1-(4-fluorophenyl)-1H-pyrazole-4-carboxamide]
< 1000 nM					CN(CC(O)(CNC(=O)c1cnn(-c2ccc(F)cc2)c1N)C(F)(F)F)C(=O)c1cccc(C(F)(F)F)c1 (racemic) [Example 26 (racemic), 5-amino-1-(4-fluorophenyl)-N-{3,3,3-trifluoro-2-hydroxy-2-[(methyl{[3-(trifluoromethyl)phenyl]carbonyl}amino)methyl]propyl}-1H-pyrazole-4-carboxamide]
				< 1000 nM	CN(CC(O)(CNC(=O)c1cnn(-c2ccc(F)cc2)c1N)C(F)(F)F)C(=O)c1ncccc1F (racemic) [Example 29 (racemic), N-{2-[({[5-amino-1-(4-fluorophenyl)-1H-pyrazol-4-yl]carbonyl}amino)methyl]-3,3,3-trifluoro-2-hydroxypropyl}-3-fluoro-N-methyl-2-pyridinecarboxamide]
< 1000 nM					CCN(CC(O)(CNC(=O)c1cnn(-c2ccccc2Cl)c1N)C(F)(F)F)C(=O)c1ccccc1 (racemic) [Example 36 (racemic), 5-amino-1-(2-chlorophenyl)-N-(2-{[ethyl(phenylcar-bonyl)amino]methyl}-3,3,3-trifluoro-2-hydroxypropyl)-1H-pyrazole-4-carboxamide]
